Results on one compound are retold here after BindingDB's records for doi:10.1016/j.bmcl.2004.05.036 (Abbott Laboratories, 2004).

This experiment is described as follows: Antiviral activity against HIV protease in absence of human serum.

Turning to `CCCCN1C(=O)N(Cc2cccc(C(=N)NO)c2)[C@H](Cc2ccccc2)[C@H](O)CN1S(=O)(=O)c1cccc(OC)c1`, the concentration giving a half-maximal response (EC50) (in general, the midpoint of the concentration-response curve) amounted to 30 nM.
